Read-outs that look alike come from different tables or passages of the source.
Columns and labels:
Experiment in all cases: Post-emergent Test III, herbicidal activity in wheat and barley
Type in all cases: in vivo
[1] = test system: MATSS: scented mayweed (Matricaria chamomilla), pineappleweed (Matricaria matricarioides); details: for pest or weed control at 35 g/ha / pest or weed control at 70 g/ha / pest or weed control at 140 g/ha: Matricaria chamomilla, post-emergence, 504 h; for pest or weed control at 35 g/ha: 35 g ai/ha; for pest or weed control at 70 g/ha: 70 g ai/ha; for pest or weed control at 140 g/ha: 140 g ai/ha; for GR50 MATSS: dose for 50 percent growth reduction; for GR50 MATSS / GR80 MATSS: probit analysis; for GR80 MATSS: dose for 80 percent growth reduction
Experimental: (§1) Post-emergent Test III. Seeds of the desired test plant species were planted in Sun Gro MetroMix® 306 planting mixture, which typically has a pH of 6.0 to 6.8 and an organic matter content of about 30 percent, in plastic pots with a surface area of 103.2 square centimeters (cm^2). When required to ensure good germination and healthy plants, a fungicide treatment and/or other chemical or physical treatment was applied. The plants were grown for 7-36 days (d) in a greenhouse with an approximate 14 hour (h) photoperiod which was maintained at about 18° C. during the day and 17° C. during the night. Nutrients and water were added on a regular basis and supplemental lighting was provided with overhead metal halide 1000-Watt lamps as necessary. The plants were employed for testing when they reached the second or third true leaf stage.
(§2) A weighed amount, determined by the highest rate to be tested, of each test compound was placed in a 25 mL glass vial and was dissolved in 4 mL of a 97:3 v/v mixture of acetone and DMSO to obtain concentrated stock solutions. […] The concentrated stock solutions obtained were diluted with 20 mL of an aqueous mixture containing acetone, water, isopropyl alcohol, DMSO, Agri-Dex crop oil concentrate, and X-77 surfactant in a 48:39:10:1.5:1.5:0.02 v/v ratio to obtain spray solutions containing the highest application rates. Additional application rates were obtained by serial dilution of 12 mL of the high rate solution into a solution containing 2 mL of 97:3 v/v mixture of acetone and DMSO and 10 mL of an aqueous mixture containing acetone, water, isopropyl alcohol, DMSO, Agri-Dex crop oil concentrate, and X-77 surfactant in a 48:39:10:1.5:1.5:0.02 v/v ratio to obtain ½×, ¼×, ⅛× and 1/16× rates of the high rate. Compound requirements are based upon a 12 mL application volume at a rate of 187 liters per hectare (L/ha). Formulated compounds were applied to the plant material with an overhead Mandel track sprayer equipped with 8002E nozzles calibrated to deliver 187 L/ha over an application area of 0.503 square meters at a spray height of 18 inches (43 cm) above the average plant canopy height. Control plants were sprayed in the same manner with the solvent blank.
(§3) The treated plants and control plants were placed in a greenhouse as described above and watered by subirrigation to prevent wash-off of the test compounds. After 21 d, the condition of the test plants as compared with that of the untreated plants was determined visually and scored on a scale of 0 to 100 percent where 0 corresponds to no injury and 100 corresponds to complete kill.
(§4) By applying the well-accepted probit analysis as described by J. Berkson in Journal of the American Statistical Society, 48, 565 (1953) and by D. Finney in “Probit Analysis” Cambridge University Press (1952), herbicidal injury of a specific compound at various rates can be used to calculate GR20, GR50, GR80 and GR90 values, which are defined as growth reduction factors that correspond to the effective dose of herbicide required to provide plant growth reduction (GR) of 20 percent, 50 percent, 80 percent and 90 percent, respectively. Probit analysis was applied to data collected from multiple dose rates of individual compounds utilizing the procedures explained in the following examples. The analysis of those dose rates is captured in the following tables.

[2] = test system: HORSS: barley, including spring and winter (Hordeum vulgare); details: for pest or weed control at 35 g/ha / pest or weed control at 70 g/ha / pest or weed control at 140 g/ha: Hordeum vulgare, post-emergence, 504 h; for pest or weed control at 35 g/ha: 35 g ai/ha; for pest or weed control at 70 g/ha: 70 g ai/ha; for pest or weed control at 140 g/ha: 140 g ai/ha
Experimental: as §1, §2, §3, §4

[3] = test system: KCHSC: kochia (Kochia scoparia); details: for pest or weed control at 35 g/ha / pest or weed control at 70 g/ha / pest or weed control at 140 g/ha: Bassia scoparia, post-emergence, 504 h; for pest or weed control at 35 g/ha: 35 g ai/ha; for pest or weed control at 70 g/ha: 70 g ai/ha; for pest or weed control at 140 g/ha: 140 g ai/ha; for GR50 KCHSC: dose for 50 percent growth reduction; for GR50 KCHSC / GR80 KCHSC: probit analysis; for GR80 KCHSC: dose for 80 percent growth reduction
Experimental: as §1, §2, §3, §4

[4] = test system: TRZSS: wheat, including spring and winter (Triticum aestivum); details: for pest or weed control at 35 g/ha / pest or weed control at 70 g/ha / pest or weed control at 140 g/ha: Triticum aestivum, post-emergence, 504 h; for pest or weed control at 35 g/ha: 35 g ai/ha; for pest or weed control at 70 g/ha: 70 g ai/ha; for pest or weed control at 140 g/ha: 140 g ai/ha
Experimental: as §1, §2, §3, §4

[5] = Table 8, post-emergent, 21 d, read-out: Visual Growth Reduction (%) 21 Days After Application MATSS
[6] = Table 8, post-emergent, 21 d, read-out: Visual Growth Reduction (%) 21 Days After Application HORSS
[7] = Table 8, dose for 20 percent growth reduction, probit analysis, 21 d
[8] = Table 8, post-emergent, 21 d, read-out: Visual Growth Reduction (%) 21 Days After Application KCHSC
[9] = Table 8, post-emergent, 21 d, read-out: Visual Growth Reduction (%) 21 Days After Application TRZSS
[10] = 21 days after application, read-out: Visual Gorowth Reduction (%) 21 days After Application MATSS
[11] = 21 days after application, read-out: Visual Gorowth Reduction (%) 21 days After Application HORSS
[12] = probit analysis, dose for 20 percent growth reduction (crop), 21 days after application
[13] = 21 days after application, read-out: Visual Gorowth Reduction (%) 21 days After Application KCHSC
[14] = 21 days after application, read-out: Visual Gorowth Reduction (%) 21 days After Application TRZSS
[15] = Table 8, dose for 80 percent growth reduction, probit analysis, 21 d

SMILES | pest or weed control at 35 g/ha [1, 5] [%] | pest or weed control at 70 g/ha [1, 5] [%] | GR50 MATSS ([1]; Table 8, 21 d) [g ai/ha] | GR80 MATSS ([1]; Table 8, 21 d) [g ai/ha] | pest or weed control at 35 g/ha [2, 6] [%] | pest or weed control at 70 g/ha [2, 6] [%] | GR20 HORSS [2, 7] [g ai/ha] | pest or weed control at 35 g/ha [3, 8] [%] | pest or weed control at 70 g/ha [3, 8] [%] | GR50 KCHSC ([3]; Table 8, 21 d) [g ai/ha] | GR80 KCHSC ([3]; Table 8, 21 d) [g ai/ha] | GR20 TRZSS [4, 7] [g ai/ha] | pest or weed control at 35 g/ha [4, 9] [%] | pest or weed control at 70 g/ha [4, 9] [%] | also measured
Nc1c(Cl)c(C(=O)O)nc(-c2ccc(I)c(F)c2)c1Cl [Compound 145, 4-Amino-3,5-dichloro-6-(3-fluoro-4-iodophenyl)picolinic acid] | 95 to 100 | 95 to 100 | 3 | 10 | 85 to 94 | 95 to 100 | 1 | 60 to 74 | 60 to 74 | 37 | 112 | 1 | 85 to 94 | 85 to 94 | pest or weed control at 140 g/ha [1, 5]: 95 to 100%; pest or weed control at 140 g/ha [2, 6]: 95 to 100%; pest or weed control at 140 g/ha [3, 8]: 75 to 84%; pest or weed control at 140 g/ha [4, 9]: 85 to 94%
C=Cc1c(C(=O)O)nc(-c2ccc(C(F)(F)F)c(F)c2)c(F)c1N [Compound 86] |  |  |  |  |  |  |  |  |  |  |  |  |  |  | pest or weed control at 35 g/ha [1, 10]: 60 to 74%; pest or weed control at 70 g/ha [1, 10]: 60 to 74%; GR50 MATSS ([1]; 21 days after application): 22 g ai/ha; GR80 MATSS ([1]; 21 days after application): 85 g ai/ha; pest or weed control at 35 g/ha [2, 11]: 30 to 44%; pest or weed control at 70 g/ha [2, 11]: 30 to 44%; GR20 HORSS [2, 12]: 14 g ai/ha; pest or weed control at 35 g/ha [3, 13]: 75 to 84%; pest or weed control at 70 g/ha [3, 13]: 75 to 84%; GR50 KCHSC ([3]; 21 days after application): 12 g ai/ha; GR80 KCHSC ([3]; 21 days after application): 55 g ai/ha; pest or weed control at 35 g/ha [4, 14]: 60 to 74%; pest or weed control at 70 g/ha [4, 14]: 60 to 74%; GR20 TRZSS [4, 12]: 1 g ai/ha
COC(=O)c1nc(-c2ccc(I)c(F)c2)c(C)c(N)c1Cl [Compound 79, Methyl 4-amino-3-chloro-6-(3-fluoro-4-iodophenyl)-5-methylpicolinate] | 75 to 84 | 85 to 94 | 13 | 46 | 85 to 94 | 85 to 94 | 1 | 60 to 74 | 75 to 84 | 24 | 70 | 2 | 75 to 84 | 85 to 94 | 
COC(=O)c1nc(-c2ccc(C#N)c(F)c2)c(F)c(N)c1Cl [Compound 135, methyl 4-amino-3-chloro-6-(4-cyano-3-fluorophenyl)-5-fluoropicolinate] | 30 to 44 | 30 to 44 | 125 | >140 | 0 to 29 | 30 to 44 | 37 | 75 to 84 | 75 to 84 | 3 | 130 | 16 | 30 to 44 | 30 to 44 | pest or weed control at 140 g/ha [1, 5]: 45 to 59%; pest or weed control at 140 g/ha [2, 6]: 60 to 74%; GR80 HORSS [2, 15]: >140 g ai/ha; pest or weed control at 140 g/ha [3, 8]: 75 to 84%; GR80 TRZSS [4, 15]: >140 g ai/ha; pest or weed control at 140 g/ha [4, 9]: 45 to 59%
Nc1c(F)c(-c2cc(F)c(I)cc2F)nc(C(=O)O)c1Cl [Compound 69] |  |  |  |  |  |  |  |  |  |  |  |  |  |  | pest or weed control at 35 g/ha [1, 10]: 75 to 84%; pest or weed control at 70 g/ha [1, 10]: 85 to 94%; GR50 MATSS ([1]; 21 days after application): 5 g ai/ha; GR80 MATSS ([1]; 21 days after application): 29 g ai/ha; pest or weed control at 35 g/ha [2, 11]: 85 to 94%; pest or weed control at 70 g/ha [2, 11]: 95 to 100%; GR20 HORSS [2, 12]: 1 g ai/ha; pest or weed control at 35 g/ha [3, 13]: 85 to 94%; pest or weed control at 70 g/ha [3, 13]: 85 to 94%; GR50 KCHSC ([3]; 21 days after application): 5 g ai/ha; GR80 KCHSC ([3]; 21 days after application): 19 g ai/ha; pest or weed control at 35 g/ha [4, 14]: 85 to 94%; pest or weed control at 70 g/ha [4, 14]: 85 to 94%; GR20 TRZSS [4, 12]: 1 g ai/ha
COC(=O)c1nc(-c2ccc(I)c(F)c2)nc(N)c1OC [Compound 27, Methyl 6-amino-2-(3-fluoro-4-iodophenyl)-5-methoxypyrimidine-4-carboxylate] | 30 to 44 | 30 to 44 | 109 | >140 | 30 to 44 | 45 to 59 | 11 | 75 to 84 | 75 to 84 | 18 | 61 | 11 | 60 to 74 | 75 to 84 | 
Nc1cc(-c2cc(F)c(Br)cc2F)nc(C(=O)O)c1Cl [Compound 3] | 95 to 100 | 95 to 100 | 4 | 11 | 85 to 94 | 95 to 100 | 1 | 95 to 100 | 95 to 100 | 2 | 8 | 1 | 85 to 94 | 85 to 94 | 

Source: patent US9113629B2, “4-amino-6-(4-substituted-phenyl)-picolinates and 6-amino-2-(4-substituted-phenyl)-pyrimidine-4-carboxylates and their use as herbicides” (DOW AGROSCIENCES LLC, priority 2013, dated 2015)
